From US20260356804A1, “SODIUM CHANNEL BLOCKING COMPOUNDS, DERIVATIVES THEREOF, AND METHODS OF THEIR USE” (LATIGO BIOTHERAPEUTICS, INC., priority 2022, published 2026)
Read-outs that look alike come from different tables or passages of the source. One block for each compound: values may come before it.

Target: T1, human Nav1.8/b3 (Homo sapiens, UniProt Q9Y5Y9)
T1 construct: expressed in transfected cells; host or cells: CHO
Assay: Compound Profiling Human NaV1.8/β3 Cell Line—SyncroPatch384PE Assay (automated patch clamp, stably transfected CHO cells)
Assay type: cell-based
Conditions: Nav1.8/b3 CHO cells

[1] = P1 (IC50, resting state block), P1 measurement, resting state block, holding potential −120 mV, second set of compounds
[2] = P2 (IC50, inactivated state block), P2 measurement, inactivated state block, inactivation step −35 mV 10 sec, second set of compounds
[3] = P1 (IC50, resting state block), P1 measurement, resting state block, holding potential −120 mV, third set of compounds
[4] = P2 (IC50, inactivated state block), P2 measurement, inactivated state block, inactivation step −35 mV 10 sec, third set of compounds
[5] = P1 (IC50, resting state block), P1 measurement, resting state block, holding potential −120 mV, fourth set of compounds
[6] = P2 (IC50, inactivated state block), P2 measurement, inactivated state block, inactivation step −35 mV 10 sec, fourth set of compounds
[7] = P1 (IC50, resting state block), P1 measurement, resting state block, holding potential −120 mV, first set of compounds
[8] = P2 (IC50, inactivated state block), P2 measurement, inactivated state block, inactivation step −35 mV 10 sec, first set of compounds

T1 sequence (Q9Y5Y9 whole entry): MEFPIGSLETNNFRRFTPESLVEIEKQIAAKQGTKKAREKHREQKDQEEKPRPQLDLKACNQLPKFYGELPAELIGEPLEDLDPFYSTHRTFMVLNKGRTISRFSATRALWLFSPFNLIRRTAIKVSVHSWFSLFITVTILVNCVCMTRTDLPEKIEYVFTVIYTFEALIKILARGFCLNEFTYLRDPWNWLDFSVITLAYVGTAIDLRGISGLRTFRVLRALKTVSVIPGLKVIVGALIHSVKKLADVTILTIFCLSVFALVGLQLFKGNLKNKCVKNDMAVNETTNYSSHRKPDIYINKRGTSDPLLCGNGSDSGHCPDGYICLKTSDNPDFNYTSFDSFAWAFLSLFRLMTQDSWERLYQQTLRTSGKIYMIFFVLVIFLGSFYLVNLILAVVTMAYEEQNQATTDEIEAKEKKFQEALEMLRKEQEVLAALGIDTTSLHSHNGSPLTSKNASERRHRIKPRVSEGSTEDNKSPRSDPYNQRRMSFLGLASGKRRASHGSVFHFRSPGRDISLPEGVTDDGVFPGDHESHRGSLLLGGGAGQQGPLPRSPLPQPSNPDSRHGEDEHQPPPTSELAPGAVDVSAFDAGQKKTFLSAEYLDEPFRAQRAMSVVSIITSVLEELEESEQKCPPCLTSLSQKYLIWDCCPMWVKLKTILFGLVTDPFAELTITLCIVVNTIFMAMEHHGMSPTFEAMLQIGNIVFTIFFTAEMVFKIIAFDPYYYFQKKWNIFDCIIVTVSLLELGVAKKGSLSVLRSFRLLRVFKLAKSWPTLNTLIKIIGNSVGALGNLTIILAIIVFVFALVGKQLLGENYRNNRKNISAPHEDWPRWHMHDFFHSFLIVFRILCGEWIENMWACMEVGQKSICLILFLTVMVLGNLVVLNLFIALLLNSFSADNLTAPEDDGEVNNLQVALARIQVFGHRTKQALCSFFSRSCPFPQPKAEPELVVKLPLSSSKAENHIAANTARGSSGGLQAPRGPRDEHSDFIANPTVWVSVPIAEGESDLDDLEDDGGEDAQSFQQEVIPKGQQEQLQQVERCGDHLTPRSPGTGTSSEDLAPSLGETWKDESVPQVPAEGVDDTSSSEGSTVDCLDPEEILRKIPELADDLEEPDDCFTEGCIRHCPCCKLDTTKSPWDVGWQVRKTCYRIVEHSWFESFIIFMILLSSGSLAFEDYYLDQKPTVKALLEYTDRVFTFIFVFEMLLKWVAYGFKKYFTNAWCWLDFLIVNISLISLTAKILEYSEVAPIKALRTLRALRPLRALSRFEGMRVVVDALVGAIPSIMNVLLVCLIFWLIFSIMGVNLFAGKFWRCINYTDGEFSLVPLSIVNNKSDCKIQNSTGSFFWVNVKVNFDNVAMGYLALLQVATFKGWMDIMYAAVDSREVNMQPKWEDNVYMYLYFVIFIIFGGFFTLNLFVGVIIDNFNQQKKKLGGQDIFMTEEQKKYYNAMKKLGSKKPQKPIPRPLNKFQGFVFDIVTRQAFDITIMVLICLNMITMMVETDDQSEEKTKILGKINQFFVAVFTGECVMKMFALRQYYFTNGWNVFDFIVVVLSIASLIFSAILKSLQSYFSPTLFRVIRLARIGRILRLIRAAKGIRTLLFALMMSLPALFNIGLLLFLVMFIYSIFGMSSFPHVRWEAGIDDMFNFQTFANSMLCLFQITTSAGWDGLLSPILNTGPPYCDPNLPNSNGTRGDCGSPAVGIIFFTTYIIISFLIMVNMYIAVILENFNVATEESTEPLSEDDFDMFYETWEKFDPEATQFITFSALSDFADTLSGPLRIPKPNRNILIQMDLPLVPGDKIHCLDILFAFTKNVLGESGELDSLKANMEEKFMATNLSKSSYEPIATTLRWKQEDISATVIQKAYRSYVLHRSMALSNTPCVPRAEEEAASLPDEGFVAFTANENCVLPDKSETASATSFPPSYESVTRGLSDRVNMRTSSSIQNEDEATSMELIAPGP
T1 sequence (Q9NY72 23-215 partner): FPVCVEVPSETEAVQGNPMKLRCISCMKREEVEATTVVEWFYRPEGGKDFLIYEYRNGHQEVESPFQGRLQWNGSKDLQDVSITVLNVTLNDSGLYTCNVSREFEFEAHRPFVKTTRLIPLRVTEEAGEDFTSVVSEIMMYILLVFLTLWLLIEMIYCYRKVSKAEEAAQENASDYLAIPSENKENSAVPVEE

SMILES: Cc1nc(F)ccc1Oc1ccc(C(F)(F)F)c(C)c1C(=O)Nc1cccc([S@@](C)(=O)=NC(=O)CO)c1 [Example 27B]
- IC50 [1]: < 5 nM
- IC50 [2]: < 5 nM

SMILES: COc1cc(C#N)ccc1Oc1ncc(-c2cn(C)nc2C)c(C)c1C(=O)Nc1cccc([S@](C)(=N)=O)c1 [Example 27C, (R)-2-(4-cyano-2-methoxyphenoxy)-5-(1,3-dimethyl-1H-pyrazol-4-yl)-4-methyl-N-(3-(S-methylsulfonimidoyl)phenyl)nicotinamide]
- IC50 [3]: 50 to 100 nM
- IC50 [4]: 50 to 100 nM

SMILES: Cc1nc(F)ccc1Oc1ncc(C(F)(F)F)c(C)c1C(=O)Nc1cccc([S@@](C)(=O)=NC(=O)[C@@H]2C[C@H](O)CN2)c1 [Example 27D, 2-((6-fluoro-2-methylpyridin-3-yl)oxy)-N-(3-((R)—N-((2S,4S)-4-hydroxypyrrolidine-2-carbonyl)-S-methylsulfonimidoyl)phenyl)-4-methyl-5-(trifluoromethyl)nicotinamide]
- IC50 [5]: < 5 nM
- IC50 [6]: < 5 nM

SMILES: Cc1nc(F)ccc1Oc1ccc(C(F)(F)F)c(C)c1C(=O)Nc1cccc([S@@](C)(=O)=NC(=O)[C@@H](C)O)c1 [Example 28B]
- IC50 [1]: < 5 nM
- IC50 [2]: < 5 nM

SMILES: COc1cc(C#N)ccc1Oc1ncc(C(F)(F)F)c(C)c1C(=O)Nc1cccc(S(N)(=O)=O)c1 [Example 28C, 2-(4-cyano-2-methoxyphenoxy)-4-methyl-N-(3-sulfamoylphenyl)-5-(trifluoromethyl)nicotinamide]
- IC50 [3]: < 5 nM
- IC50 [4]: < 5 nM

SMILES: Cc1nc(F)ccc1Oc1nnc(C(F)(F)F)c(C)c1C(=O)Nc1cccc([S@@](C)(=O)=NC(=O)CN2CC(F)(F)C2)c1 [Example 28D, (R)—N-(3-(N-(2-(3,3-difluoroazetidin-1-yl)acetyl)-S-methylsulfonimidoyl)phenyl)-3-((6-fluoro-2-methylpyridin-3-yl)oxy)-5-methyl-6-(trifluoromethyl)pyridazine-4-carboxamide]
- IC50 [5]: < 5 nM
- IC50 [6]: < 5 nM

SMILES: CNCC(=O)N=[S@](C)(=O)c1cccc(NC(=O)c2cc(Cl)c(C(F)(F)F)cc2Oc2ccc(F)nc2C)c1 [Example 29B]
- IC50 [1]: < 5 nM
- IC50 [2]: < 5 nM

SMILES: Cc1cc(C#N)ccc1Oc1cc(C(F)(F)F)nnc1C(=O)Nc1cccc(S(C)(=O)=O)c1 [Example 29C, 4-(4-cyano-2-methylphenoxy)-N-(3-(methylsulfonyl)phenyl)-6-(trifluoromethyl)pyridazine-3-carboxamide]
- IC50 [3]: > 200 nM
- IC50 [4]: > 200 nM

SMILES: Cc1nc(F)ccc1Oc1ncc(C(F)(F)F)c(C)c1C(=O)Nc1cccc([S@@](C)(=O)=NC(=O)CN2CC(F)(F)C2)c1 [Example 29D, (R)—N-(3-(N-(2-(3,3-difluoroazetidin-1-yl)acetyl)-S-methylsulfonimidoyl)phenyl)-2-((6-fluoro-2-methylpyridin-3-yl)oxy)-4-methyl-5-(trifluoromethyl)nicotinamide]
- IC50 [5]: < 5 nM
- IC50 [6]: < 5 nM

SMILES: COc1c(Oc2cc(C(F)(F)F)nnc2C(=O)Nc2cccc([S+](C)[O-])c2)ccc(F)c1F (stereo not shown) [Example 30C, 4-(3,4-difluoro-2-methoxyphenoxy)-N-(3-(methylsulfinyl)phenyl)-6-(trifluoromethyl)pyridazine-3-carboxamide]
- IC50 [3]: > 200 nM
- IC50 [4]: > 200 nM

SMILES: COc1c(Oc2cc(C(F)(F)F)nnc2C(=O)Nc2cccc(S(C)(=N)=O)c2)ccc(F)c1F (stereo not shown) [Example 31C, 4-(3,4-difluoro-2-methoxyphenoxy)-N-(3-(S-methylsulfonimidoyl)phenyl)-6-(trifluoromethyl)pyridazine-3-carboxamide]
- IC50 [3]: 100 to 200 nM
- IC50 [4]: 100 to 200 nM

The remaining lines, values ahead:

- IC50 [3]: 50 to 100 nM
- IC50 [4]: 50 to 100 nM
SMILES: COc1c(Oc2cc(C(F)(F)F)nnc2C(=O)Nc2cccc(S(C)(=O)=O)c2)ccc(F)c1F [Example 32C, 4-(3,4-difluoro-2-methoxyphenoxy)-N-(3-(methylsulfonyl)phenyl)-6-(trifluoromethyl)pyridazine-3-carboxamide]

- IC50 [7]: 5 to 50 nM
- IC50 [8]: 5 to 50 nM
SMILES: Cc1nc(F)ccc1Oc1cc(C(F)(F)F)cc(F)c1C(=O)Nc1ccnc([S@@](C)(=N)=O)c1 [Example 33A]

- IC50 [3]: 5 to 50 nM
- IC50 [4]: < 5 nM
SMILES: CN=[S@](C)(=O)c1cccc(NC(=O)c2c(Oc3ccc(F)nc3C)ncc(C(F)(F)F)c2C)c1 [Example 33C, (R)—N-(3-(N,S-dimethylsulfonimidoyl)phenyl)-2-((6-fluoro-2-methylpyridin-3-yl)oxy)-4-methyl-5-(trifluoromethyl)nicotinamide]

- IC50 [7]: < 5 nM
- IC50 [8]: < 5 nM
SMILES: Cc1nc(F)ccc1Oc1cc(C(F)(F)F)c(Cl)c(F)c1C(=O)Nc1ccnc([S@@](C)(=N)=O)c1 [Example 34A]

- IC50 [3]: > 200 nM
- IC50 [4]: > 200 nM
SMILES: COc1cc(C#N)ccc1Oc1cc(C(F)(F)F)nnc1C(=O)Nc1cccc(S(C)(=N)=O)c1 (stereo not shown) [Example 34C, 4-(4-cyano-2-methoxyphenoxy)-N-(3-(S-methylsulfonimidoyl)phenyl)-6-(trifluoromethyl)pyridazine-3-carboxamide]

- IC50 (P1 measurement, resting state block, holding potential −120 mV, first set of compounds, read-out: P1 (IC50, resting state block)): 50 to 100 nM
- IC50 (P2 measurement, inactivated state block, inactivation step −35 mV 10 sec, first set of compounds, read-out: P2 (IC50, inactivated state block)): 50 to 100 nM
SMILES: C[S@@](=N)(=O)c1cc(NC(=O)c2cc(Cl)c(C(F)(F)F)cc2OCC(F)(F)F)ccn1 [Example 35A]

- IC50 [3]: < 5 nM
- IC50 [4]: < 5 nM
SMILES: Cc1nc(F)ccc1Oc1nc(C(F)(F)F)c(Cl)c(C)c1C(=O)Nc1cccc([S@](C)(=N)=O)c1 [Example 35C, (R)-5-chloro-2-((6-fluoro-2-methylpyridin-3-yl)oxy)-4-methyl-N-(3-(S-methylsulfonimidoyl)phenyl)-6-(trifluoromethyl)nicotinamide]

- IC50 [7]: 5 to 50 nM
- IC50 [8]: 5 to 50 nM
SMILES: Cc1nc(F)ccc1Oc1cc(C(F)(F)F)cc(F)c1C(=O)Nc1ccc(C(N)=O)cc1 [Example 36A]

- IC50 [3]: > 200 nM
- IC50 [4]: > 200 nM
SMILES: Cc1nc(F)ccc1Oc1c(C(F)(F)F)ncc(F)c1C(=O)Nc1cccc([S@](C)(=N)=O)c1 [Example 36C, (R)-5-fluoro-3-((6-fluoro-2-methylpyridin-3-yl)oxy)-N-(3-(S-methylsulfonimidoyl)phenyl)-2-(trifluoromethyl)isonicotinamide]

- IC50 [7]: < 5 nM
- IC50 [8]: < 5 nM
SMILES: Cc1nc(F)ccc1Oc1cc(C(F)(F)F)c(Cl)c(F)c1C(=O)Nc1ccc(C(N)=O)cc1 [Example 37A]

- IC50 (P1 measurement, resting state block, holding potential −120 mV, third set of compounds, read-out: P1 (IC50, resting state block)): > 200 nM
- IC50 (P2 measurement, inactivated state block, inactivation step −35 mV 10 sec, third set of compounds, read-out: P2 (IC50, inactivated state block)): > 200 nM
SMILES: Cc1nc(F)ccc1Oc1c(C2CC2)ncc(F)c1C(=O)Nc1cccc([S@](C)(=N)=O)c1 [Example 37C, (R)-2-cyclopropyl-5-fluoro-3-((6-fluoro-2-methylpyridin-3-yl)oxy)-N-(3-(S-methylsulfonimidoyl)phenyl)isonicotinamide]

- IC50 [7]: < 5 nM
- IC50 [8]: < 5 nM
SMILES: Cc1nc(F)ccc1Oc1cc(C2CC2)c(C(F)(F)F)c(C)c1C(=O)Nc1ccnc([S@@](C)(=N)=O)c1 [Example 38A]

- IC50 [3]: > 200 nM
- IC50 [4]: 100 to 200 nM
SMILES: COc1cc(C#N)ccc1Oc1cc(C(F)(F)F)nnc1C(=O)Nc1cccc(S(C)(=O)=O)c1 [Example 38C, 4-(4-cyano-2-methoxyphenoxy)-N-(3-(methylsulfonyl)phenyl)-6-(trifluoromethyl)pyridazine-3-carboxamide]

- IC50 [7]: < 5 nM
- IC50 [8]: < 5 nM
SMILES: Cc1nc(F)ccc1Oc1cc(C2CC2)c(C(F)(F)F)c(C)c1C(=O)Nc1ccnc([S@](C)(=N)=O)c1 [Example 39A]

- IC50 [3]: > 200 nM
- IC50 [4]: > 200 nM
SMILES: Cc1cc(C#N)ccc1Oc1cc(C(F)(F)F)nnc1C(=O)Nc1cccc(S(C)(=N)=O)c1 (stereo not shown) [Example 39C, 4-(4-cyano-2-methylphenoxy)-N-(3-(S-methylsulfonimidoyl)phenyl)-6-(trifluoromethyl)pyridazine-3-carboxamide]
